# US20260265216A1, “NOVEL THIOREDOXIN REDUCTASE INHIBITORS” (GENEXPLAIN GMBH, priority 2021, published 2026)
# Assays:
# MCF7 cells = assay: Apoptosis detection by FACS (Annexin V); assay type: cell-based; conditions: 2 μM, 24 h
# Experimental: Cells were placed on 12-well plate at a density of 30000/cm^2 and treated with compounds. After 24 h incubation cells were harvested by trypsinization, fixed with 70% ethanol, treated with RNase A (0.25 mg/ml) and stained with Annexin V according to manufacturer's instructions (Thermo Fisher Scientific). Samples were analyzed on a Becton Dickinson FACScan. Data were analyzed by the CellQuest software, version 3.2.1.
# To find out whether the growth suppression by 1d*HCl is due to triggering cell death by apoptosis, we performed the Annexin V-mediated staining of phosphatidylserine, exposed on surface of cells undergoing apoptotic cell death. We detected Annexin V-positive cells using FACS.
# HCT116 cells = assay: Growth suppression in the presence of antioxidant NAC; assay type: cell-based; conditions: HCT116, 5 mM NAC 16 h pre-treatment; 2.5, 5, 10 μM; 24 h
# Experimental: To find out whether oxidative stress plays a role in cancer cell death induced by 1d*HCl, we tested the extent of growth suppression by the treatment in the presence of antioxidant N-acetyl cysteine (NAC), which neutralize ROS. We pre-treated HCT116 cells with 5 mM NAC. After 16 h of incubation with NAC, we treated HCT116 cells with 2.5, 5, and 10 μM of 1d*HCl. We measured the growth suppression 24 h after treatment. […] Thus, we conclude that the mechanism of cancer cell growth suppression is dependent on the induction of oxidative stress by the compounds of the present invention.
# cancer cells [1] = assay: Oxidative stress measurement (DCFH-DA, ROS); assay type: cell-based
# Experimental: Cells were treated with compounds and incubated 30 min with 10 μM DCF-DA in serum free medium. Afterward, cells were trypsinized, washed with PBS and fluorescence was analyzed by a FACSCalibur flow cytometer (BD Biosciences) using FL1-H channel.
# To get insight into the mechanism of the anti-tumor activity of 1d*HCl, we tested the level of oxidative stress upon treatment. We measured the induction of reactive oxygen species (ROS), using 2′-7′-Dichlorodihydrofluorescein diacetate (DCFH-DA)-based assay. […] After 8 h of treatment, the induction of reactive oxygen species (ROS) was much higher.
# recombinant purified GR = assay: GR recombinant enzyme assay in vitro; assay type: biochemical
# Experimental: TrxR1 enzyme was recombinantly produced with high Sec contents in a specific Release Factor 1-depleted E. coli strain and purified as previously described (Arnér E S J, Holmgren A, in Current Protocols in Toxicology, Maines M, Costa L, Reed D, Sassa S, Eds. (John Wiley & Sons, Inc., New York, 2000), pp. 7.4.1-7.4.14). TrxR1 and GSR (Sigma) recombinant enzyme assays were performed in a reaction buffer containing 50 mM Tris pH 7.5 with 2 mM EDTA and 0.1 mg/mL bovine serum albumin as described previously (Arnér E S J, Holmgren A, in Current Protocols in Toxicology, Maines M, Costa L, Reed D, Sassa S, Eds. (John Wiley & Sons, Inc., New York, 2000), pp. 7.4.1-7.4.14). Briefly, assays were performed in triplicate using 96-well plates, with activity inferred from absorbance changes using a Spectra Max plate reader. Results of recombinant enzyme assays were normalized to DMSO and to no enzyme controls.
# We used recombinant purified TrxR1 and GR in an in vitro assay as described in methods section.
# cancer cells [2] = assay: Cell growth assay, combination with BSO; assay type: cell-based; conditions: 5 μM 1d*HCl and 50 μM BSO
# Experimental: Further, we tested whether the inhibition of GR by BSO will have additive effect with 1d*HCl. If 1d*HCl mechanism of action includes inhibition of GR, BSO will not have an additive effect. We used a range of concentrations of 1d*HCl and BSO in cell growth assays. […] Next, we tested whether the prevention of oxidative stress by NAC will affect the growth suppression by the combination of 1d*HCl and BSO. In the presence of NAC we observed the additive effect of 1d*HCl with 50 μM BSO only at twice higher dose of 1d*HCl-10 μM.
# [3] = system: cancer cells grown in hypoxia; assay: Growth suppression under hypoxia versus normoxia; assay type: cell-based; conditions: hypoxia vs normoxia
# Experimental: Breast, colon, ovarian, cervical, liver and lung carcinoma cell lines were grown in DMEM supplemented with 10% FBS, and antibiotics were cultured at 37° C. and 5% CO2. Osteosarcoma, melanoma, lymphoma, neuroblastoma and leukemia cell lines were cultured in RPMI 1640 with 10% FBS and antibiotics. An oxygen concentration of 0.3% was obtained by flushing a sealed box containing the cells with premixed gas composed of 95% nitrogen (N2) and 5% CO2 (AGA AB, Sweden). To obtain an oxygen concentration of 0.05%, the cells were flushed with the premixed gas continuously throughout the experiment.
# Hypoxic tumors are often the most aggressive and resistant to chemotherapy. Therefore, we tested how cells in hypoxia will respond to the treatment by 1d*HCl. It has been shown that 1d*HCl is even more efficient in hypoxia condition. […] Thus, the compounds of the present invention are of great interest for the treatment of hypoxic solid tumors.
structure (smiles),measurement,setting,value
"Cl.N#Cc1c(-c2cccnc2)[n+]([O-])c2cc(F)c(N3CCOCC3)cc2[n+]1[O-] [Compound 1d*HCl, 6-Fluoro-7-(morpholin-4-yl)-3-(pyridin-3-yl)quinoxaline-2-carbonitrile-1,4-dioxide hydrochloride]",Annexin V-positive cells (apoptosis),MCF7 cells,induced Annexin V-positive cells statistically significantly
same,growth suppression after prevention of ROS accumulation by NAC,HCT116 cells,almost completely abolished the growth suppression
same,induction of reactive oxygen species (DCF fluorescence),cancer cells [1]; 2 h after treatment,significant increase in DCF fluorescence
same,induction of reactive oxygen species (ROS),cancer cells [1]; after 8 h of treatment,much higher
same,inhibition of GR activity,recombinant purified GR,did not inhibit GR activity
same,effect of combination with BSO on cell growth,cancer cells [2],have an additive effect and completely eradicated cancer cells
same,IC50 in hypoxia lower than that in normoxia,[3],2.3 fold
